These results are taken from patent US9062066B2, “Anti-inflammatory compound having inhibitory activity against multiple tyrosine kinases and pharmaceutical composition containing same” (KOREA INSTITUTE OF SCIENCE AND TECHNOLOGY, priority 2010, dated 2015).

Test [1] relates to mouse skin fibroblast. The test can be described thus: inhibition of migration of activated fibroblast (scratch wound). It counts as cell-based. The settings on record: 0.5 uM compound, 10 ng/ml TGF-β1, 24 hours, read-out: Inhibition (%) of migration of activated fibroblast. On the procedure:
The straight line of regular width was made using a micro pipette tip for a scratch wound on the mono-layer culture, and then the culture was exchanged to DMEM medium and incubated with 10 ng/ml of TGF-β1 in cell culture incubator of 37° C. for 24 hours. The cultured cells were fixed using formalin and stained with crystal violet. Photo-pictures were taken at 100× magnification in five location selected randomly in the scratched wound site of each stained culture dish and then the number of the cells moved into the scratched wound area was counted and averaged.

The test system of test [2] is α-smooth muscle actin protein expression in skin fibroblast cells. The test can be described thus: inhibition of α-smooth muscle actin expression in fibroblast activated by type I collagen and TGF-β1 (western blotting). The class given is cell-based, Balb/C mouse. Particulars: Mus musculus, 0.5 uM compound, 10 ng/ml TGF-β1, 48 hours, type I collagen, read-out: Inhibition (%) of α-smooth muscle actin increase. From the text: When fibroblast, […] alpha smooth muscle cells are converted to myofibroblast by activation, one of characteristic features is that α-smooth muscle actin protein expression is increased. Also myoblast cells with the increased α-smooth muscle actin expression have a character of an increased migration. These phenomena appear together with the activation of inflammatory cells and the activated myoblast-type cells are known to contribute directly to the pathology of inflammatory diseases. […] In this experiment, the expression level of alpha smooth muscle actin can be quantificated by measuring the density of α-smooth muscle actin protein band with densitometer after developing the X-ray film of chemiluminescence signal in western blotting experiment.

Test [3] deals with Hck tyrosine kinase (Homo sapiens (Human), UniProt P08631). The test can be described thus: in vitro Hck tyrosine kinase inhibition. It counts as biochemical. Particulars: 1 uM compound; read-out: % inhibition against Hck.
Chain of Hck tyrosine kinase (P08631 whole entry): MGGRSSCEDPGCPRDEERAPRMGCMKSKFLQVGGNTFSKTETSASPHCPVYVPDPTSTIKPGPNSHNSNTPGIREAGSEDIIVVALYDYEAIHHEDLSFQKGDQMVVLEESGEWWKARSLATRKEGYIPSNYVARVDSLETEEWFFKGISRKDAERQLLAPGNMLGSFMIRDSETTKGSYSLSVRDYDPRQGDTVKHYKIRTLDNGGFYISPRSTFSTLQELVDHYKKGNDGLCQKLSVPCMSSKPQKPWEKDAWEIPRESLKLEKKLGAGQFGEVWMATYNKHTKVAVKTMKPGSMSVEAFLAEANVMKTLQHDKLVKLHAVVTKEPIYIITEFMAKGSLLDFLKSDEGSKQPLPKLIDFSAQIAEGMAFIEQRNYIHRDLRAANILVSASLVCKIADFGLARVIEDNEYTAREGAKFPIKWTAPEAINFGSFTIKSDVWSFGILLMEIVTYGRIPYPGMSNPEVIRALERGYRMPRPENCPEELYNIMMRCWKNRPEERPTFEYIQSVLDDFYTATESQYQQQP
In test [4] the test system is NO synthesis in J744A.1 macrophage. The test can be described thus: inhibition of nitric oxide (NO) synthesis in LPS-activated macrophages (Griess reagent). The class given is cell-based. Particulars: 10 μM compound, LPS, 24 hours, read-out: Inhibition (%) of NO synthesis. (In general: Nitrite, measured by Griess reagent, commonly stands in for NO production.)
Test [5] concerns oxazolone-induced skin inflammation of Balb/C mouse ears. The test can be described thus: mouse skin inflammatory model induced by oxazolone (ear thickness). The class given is in vivo. The settings on record: 20 ul of 0.1% compound topical on ear, 36 hours after oxazolone. On the procedure:
The compounds of the present invention were evaluated for their effective anti-inflammatory activity using a skin inflammatory animal model of 8 weeks old Balb/C mouse ears induced by oxazolone. […] After 4 days, the thickness of ear was measured using a caliper for the thickness value of ear before the induction of inflammation. […] After 36 hours, the thickness of ear was measured for the increased thickness induced by inflammation. […] The average value was obtained in each group (n=4).

Test [6] deals with DDR2 tyrosine kinase (Homo sapiens (Human), UniProt Q16832). Description: in vitro DDR2 tyrosine kinase inhibition (GST-fused kinase domain). The class given is biochemical. Particulars: 1 uM compound; read-out: % inhibition against DDR2.
Chain of DDR2 tyrosine kinase (Q16832 563-849): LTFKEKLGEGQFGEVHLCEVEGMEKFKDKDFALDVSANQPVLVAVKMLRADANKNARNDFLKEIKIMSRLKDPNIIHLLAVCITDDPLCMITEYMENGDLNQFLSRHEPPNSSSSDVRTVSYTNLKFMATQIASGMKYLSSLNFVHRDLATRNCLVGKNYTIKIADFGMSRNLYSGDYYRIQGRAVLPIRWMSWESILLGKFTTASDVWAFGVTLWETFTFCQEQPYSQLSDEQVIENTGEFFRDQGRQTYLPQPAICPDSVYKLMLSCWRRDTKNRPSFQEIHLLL
For test [7], the target named is c-Src tyrosine kinase (Homo sapiens (Human), UniProt P12931). Description: in vitro c-Src tyrosine kinase inhibition (32P-ATP, poly(D4Y)n substrate). The class given is biochemical. The settings on record: 1 uM compound; read-out: % inhibition against c-Src.
Chain of c-Src tyrosine kinase (P12931 whole entry, looked up): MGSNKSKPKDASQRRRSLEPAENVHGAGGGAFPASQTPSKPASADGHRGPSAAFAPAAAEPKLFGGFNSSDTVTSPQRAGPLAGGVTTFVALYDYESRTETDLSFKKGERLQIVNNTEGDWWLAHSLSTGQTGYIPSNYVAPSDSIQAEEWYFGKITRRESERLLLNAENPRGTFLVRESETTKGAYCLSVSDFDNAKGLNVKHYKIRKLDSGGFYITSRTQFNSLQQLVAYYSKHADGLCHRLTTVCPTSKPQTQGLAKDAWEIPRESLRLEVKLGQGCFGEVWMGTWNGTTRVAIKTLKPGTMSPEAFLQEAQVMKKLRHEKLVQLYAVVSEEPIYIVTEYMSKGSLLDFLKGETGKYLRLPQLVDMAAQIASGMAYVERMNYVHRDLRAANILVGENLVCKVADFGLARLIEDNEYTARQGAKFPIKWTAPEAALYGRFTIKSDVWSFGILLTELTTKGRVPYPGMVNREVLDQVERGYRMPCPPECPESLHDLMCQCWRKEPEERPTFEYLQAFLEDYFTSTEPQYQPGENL
Test [8] has as its system TNF-α synthesis in J744A.1 macrophages. The test can be described thus: inhibition of TNF-α synthesis in LPS-activated macrophages (ELISA). It counts as cell-based. Particulars: Macrophage; 10 μM compound, 100 ng/ml LPS, 6 hours; read-out: Inhibition (%) of TNF-α synthesis.
For test [9], the target named is Fgr tyrosine kinase (Homo sapiens (Human), UniProt P09769). Description: in vitro Fgr tyrosine kinase inhibition. It counts as biochemical. Particulars: 1 uM compound; read-out: % inhibition against Fgr.
Chain of Fgr tyrosine kinase (P09769 whole entry, the tested form may be a part): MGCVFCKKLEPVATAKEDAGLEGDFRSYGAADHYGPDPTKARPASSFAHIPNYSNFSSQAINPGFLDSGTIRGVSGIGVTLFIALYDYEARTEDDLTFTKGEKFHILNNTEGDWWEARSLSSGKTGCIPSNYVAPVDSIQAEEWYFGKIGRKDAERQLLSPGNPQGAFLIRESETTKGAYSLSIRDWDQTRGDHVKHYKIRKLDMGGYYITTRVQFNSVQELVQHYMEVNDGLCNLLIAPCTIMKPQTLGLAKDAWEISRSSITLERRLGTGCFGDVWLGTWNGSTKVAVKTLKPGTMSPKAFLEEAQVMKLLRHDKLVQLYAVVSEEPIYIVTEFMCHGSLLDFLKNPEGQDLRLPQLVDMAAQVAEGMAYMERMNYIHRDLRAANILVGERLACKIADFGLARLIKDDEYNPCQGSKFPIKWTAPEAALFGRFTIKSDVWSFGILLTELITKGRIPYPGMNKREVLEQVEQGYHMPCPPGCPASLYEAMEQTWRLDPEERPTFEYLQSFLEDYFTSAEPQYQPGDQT
For test [10], the target named is DDR1 tyrosine kinase (Homo sapiens (Human), UniProt Q08345). Description: in vitro DDR1 tyrosine kinase inhibition (GST-fused kinase domain). It counts as biochemical. Particulars: 1 uM compound; read-out: % inhibition against DDR1.
Chain of DDR1 tyrosine kinase (Q08345 610-905): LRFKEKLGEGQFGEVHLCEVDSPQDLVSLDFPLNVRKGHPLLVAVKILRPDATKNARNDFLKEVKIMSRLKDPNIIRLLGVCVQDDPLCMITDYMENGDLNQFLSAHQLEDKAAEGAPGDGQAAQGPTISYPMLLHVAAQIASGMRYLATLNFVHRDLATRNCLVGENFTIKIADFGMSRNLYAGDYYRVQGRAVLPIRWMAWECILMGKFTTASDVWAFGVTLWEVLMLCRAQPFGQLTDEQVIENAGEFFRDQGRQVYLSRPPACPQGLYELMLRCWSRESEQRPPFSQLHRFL
Test [11] has as its target Lyn tyrosine kinase (Homo sapiens (Human), UniProt P07948). Description: in vitro Lyn tyrosine kinase inhibition. It counts as biochemical. Particulars: 1 uM compound; read-out: % inhibition against Lyn.

Chain of Lyn tyrosine kinase (P07948 whole entry): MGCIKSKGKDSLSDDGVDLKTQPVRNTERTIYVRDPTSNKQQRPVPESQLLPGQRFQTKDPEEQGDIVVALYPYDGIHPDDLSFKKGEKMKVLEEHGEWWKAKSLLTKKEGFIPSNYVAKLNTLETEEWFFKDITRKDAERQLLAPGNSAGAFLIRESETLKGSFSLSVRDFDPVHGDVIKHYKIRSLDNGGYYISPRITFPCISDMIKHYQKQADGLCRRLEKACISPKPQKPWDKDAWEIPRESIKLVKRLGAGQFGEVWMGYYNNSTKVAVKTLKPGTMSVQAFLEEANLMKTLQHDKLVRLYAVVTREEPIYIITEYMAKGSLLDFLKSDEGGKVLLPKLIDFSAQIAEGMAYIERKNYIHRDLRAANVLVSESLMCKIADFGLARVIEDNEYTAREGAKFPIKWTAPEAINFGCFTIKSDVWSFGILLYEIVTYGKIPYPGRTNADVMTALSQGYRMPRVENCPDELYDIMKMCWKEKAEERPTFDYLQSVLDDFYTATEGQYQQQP

With `CO[C@@H]1C[C@@H](CO)N(C(=O)c2cc3nccc(Nc4ccc5c(c4)cc(C)n5C(=O)NC4CC4)c3s2)C1` [Control compound 3, reference compound], the inhibition at 0.5 µM in test [1] was found to be 11%; in test [2], 8%. Besides, the inhibition at 1 µM in [3], in test [6], in test [7], in [9], in [10] and in test [11] was less than 20% throughout. For the same molecule, the inhibition at 10 µM was 21% in test [4] and 19% in test [8]. Moreover, in test [5], the “Inhibition (%) of increase of ear thickness” value was 22%.

Consider `Oc1cccc(Nc2ncnc3cc(-c4ccc(CN5CCOCC5)cc4)sc23)c1` [LCB 03-0032, 3-(6-(4-(morpholinomethyl)phenyl)thieno[3,2-d]pyrimidin-4-ylamino)phenol], for which the inhibition at 0.5 µM came out at 35% in test [1] and 56% in [2]. The inhibition at 1 µM in test [3], in [6], in [7], in test [9], in test [10] and in test [11] was more than 80% in each case. Moreover, the inhibition at 10 µM in test [4] came out at 92%; in [8] it was 77%. The “Inhibition (%) of increase of ear thickness” value in test [5] worked out at 27%.

On to `Oc1cccc(Nc2ncnc3cc(-c4ccc(CN5CCNCC5)cc4)sc23)c1` [LCB 03-0033, 3-(6-(4-(piperazine-1-ylmethyl)phenyl)thieno[3,2-d]pyrimidin-4-ylamino)phenol], for which the inhibition at 0.5 µM in [1] stood at 30%; in test [2] it was 60%. Besides, the inhibition at 1 µM in test [3] is more than 60%; in test [6], more than 80%; in test [7], more than 60%; in test [9] it was more than 60%; in test [10] it was more than 80%; in [11], more than 60%. In addition, the inhibition at 10 µM was found to be 77% in [4] and 59% in [8]. Besides, the “Inhibition (%) of increase of ear thickness” value in test [5] is given as 22%.

In the case of `Cl.Oc1cccc(Nc2ncnc3cc(-c4ccc(CN5CCCC5)cc4)sc23)c1` [LCB 03-0034, 3-(6-(4-(pyrrolidin-1-ylmethyl)phenyl)thieno[3,2-d]pyrimidin-4-ylamino)phenol], the inhibition at 0.5 µM in [1] was found to be 32%; in test [2], 67%. For the same molecule, the inhibition at 1 µM was more than 70% in test [3]; more than 80% in [6]; more than 80% in [7]; more than 80% in [9]; more than 80% in test [10]; more than 80% in [11]. For the same molecule, the inhibition at 10 µM in [4] worked out at 90%; in [8], 75%. In addition, in test [5], the “Inhibition (%) of increase of ear thickness” value worked out at 29%.

Regarding `Oc1cccc(Nc2ncnc3cc(-c4ccc(CN5CCCCC5)cc4)sc23)c1` [LCB 03-0035, 3-(6-(4-(piperidin-1-ylmethyl)phenyl)thieno[3,2-d]pyrimidin-4-ylamino)phenol], the results for the inhibition at 0.5 µM in [1] and in [2] were 31% and 55%, respectively. The inhibition at 1 µM in test [3], in test [6], in [7], in test [9], in test [10] and in test [11] was more than 80% each time. Besides, the inhibition at 10 µM in test [4] worked out at 91%; in test [8], 65%. Further, in test [5], the “Inhibition (%) of increase of ear thickness” value was 31%.

With `CN1CCN(Cc2ccc(-c3cc4ncnc(Nc5cccc(O)c5)c4s3)cc2)CC1` [LCB 03-0036, 3-(6-(4-((4-methylpiperazin-1-yl)methyl)phenyl)thieno[3,2-d]pyrimidin-4-ylamino)phenol], the inhibition at 0.5 µM in test [1] is 39%; in test [2], 63%. Besides, the inhibition at 1 µM in [3], in test [6], in [7], in test [9], in test [10] and in test [11] was more than 80% each time. Moreover, the inhibition at 10 µM is 81% in test [4] and 61% in test [8]. In addition, the “Inhibition (%) of increase of ear thickness” value in [5] stood at 28%.

As to `CCN(CC)Cc1ccc(-c2cc3ncnc(Nc4cccc(O)c4)c3s2)cc1` [LCB 03-0037], the inhibition at 0.5 µM stood at 37% in test [1] and 55% in test [2]. Also, the inhibition at 1 µM is more than 80% in test [3]; more than 80% in [6]; more than 80% in [7]; more than 70% in test [9]; more than 80% in test [10]; more than 80% in [11]. Further, the inhibition at 10 µM was 93% in test [4] and 73% in test [8]. In [5], the “Inhibition (%) of increase of ear thickness” value was determined as 33%.

On to `Oc1cccc(Nc2ncnc3cc(-c4ccc(CNC5CC5)cc4)sc23)c1` [LCB 03-0040], for which the inhibition at 0.5 µM is 43% in test [1] and 55% in test [2]. The inhibition at 1 µM in [3], in test [6], in test [7], in test [9], in test [10] and in test [11] was more than 80% throughout. Further, the inhibition at 10 µM was found to be 93% in test [4] and 84% in [8]. The “Inhibition (%) of increase of ear thickness” value in test [5] was 31%.

Consider `CC(C)CNCc1ccc(-c2cc3ncnc(Nc4cccc(O)c4)c3s2)cc1` [LCB 03-0041], for which the inhibition at 0.5 µM was 39% in [1] and 66% in test [2]. For the same molecule, the inhibition at 1 µM in [3], in test [6], in test [7], in test [9], in test [10] and in test [11] was more than 80% throughout. For the same molecule, the inhibition at 10 µM in test [4] was determined as 91%; in [8], 87%. The “Inhibition (%) of increase of ear thickness” value in [5] amounted to 29%.

In the case of `CCNCc1ccc(-c2cc3ncnc(Nc4cccc(O)c4)c3s2)cc1` [LCB 03-0042], the inhibition at 0.5 µM in test [1] was found to be 46%; in test [2], 69%. For the same molecule, the inhibition at 1 µM in test [3], in [6], in test [7], in [9], in test [10] and in test [11] was more than 80% in each case. The inhibition at 10 µM turned out to be 91% in test [4] and 98% in test [8]. In addition, in test [5], the “Inhibition (%) of increase of ear thickness” value was 33%.

For `C[C@@H]1CCC[C@H](C)N1Cc1ccc(-c2cc3ncnc(Nc4cccc(O)c4)c3s2)cc1.Cl` [LCB 03-0059, 3-(6-(4-(((2R,6S)-2,6-dimethylpiperidin-1-yl)methyl)phenyl)thieno[3,2-d]pyrimidin-4-ylamino)phenol], the results for the inhibition at 0.5 µM in test [1] and in test [2] were 29% and 56%, respectively. Besides, the inhibition at 1 µM was more than 50% in [3]; more than 80% in [6]; more than 50% in [7]; more than 50% in test [9]; more than 80% in test [10]; more than 50% in test [11]. The inhibition at 10 µM turned out to be 88% in [4] and 74% in [8]. Besides, the “Inhibition (%) of increase of ear thickness” value in test [5] was 59%.
